Data: publication PMC4864078, “De Novo Transcriptome Analysis and Detection of Antimicrobial Peptides of the American Cockroach Periplaneta americana (Linnaeus)” (PLoS ONE, 2016)

Key:
C. albicans (ATCC 14053) = type: cell-based, Candida albicans; conditions: Mueller-Hinton Broth, 2 × 10^4 CFU/mL, 18 h at 37°C, visible turbidity, complete growth inhibition
Method: The bacterial strains E. coli (KACC 13821, ATCC 11775) and Staphylococcus aureus (KACC 10768, ATCC 25923), and the yeast strain Candida albicans (KCTC 7121, ATCC 14053) were purchased from the Korean Agricultural Culture Collection (KACC) and Korean Collection for Type Cultures (KCTC). Both bacteria and the yeast were cultivated overnight in tryptic soy broth (TSB; Difco, USA) at 200 rpm in a 37°C shaking incubator to the stationary phase. Bacteria were cultivated for 3 h in fresh TSB medium under the same condition to the log phase. The strains were stored with 15% glycerol at −70°C until use.
In addition, antimicrobial activities of the peptides were also tested by broth microdilution assays against E. coli, S. aureus, and C. albicans. Briefly, microbes were grown overnight in Mueller-Hinton Broth (MHB) to the onset of the stationary phase with shaking at 200 rpm. The cultures were diluted in fresh MHB to a final concentration of 2 × 10^4 CFU/mL. A stock solution of each peptide was prepared to a concentration of 640 μg/mL in 0.01% acetic acid, and was then serially diluted two-fold to reach a concentration of 10 μg/mL. After 90-μL aliquots of the microbial suspension were dispensed into each well of a 96-well polypropylene microtiter plate, 10 μL of the peptide solution was added. The antimicrobial activities of the peptides were assessed by measuring the visible turbidity in each well of the plate after 18 h of incubation at 37°C. Minimum inhibitory concentrations (MICs) are expressed as a specific value that caused complete growth inhibition.

human keratinocytes = test: Cell viability assay (MTS); type: cell-based; conditions: 24 h treatment, 25, 50, 100 and 200 μg/mL, OD 490 nm
Method: (§1) The human keratinocytes were maintained in Dulbecco’s Modified Eagle Medium supplemented with 10% fetal bovine serum (FBS; Hyclone, USA), penicillin G (100 U/mL), and streptomycin (100 μg/mL) (Invitrogen, USA). Human umbilical vein endothelial cells (HUVECs) were grown on 0.1% gelatin-coated cell culture dishes in M199 medium (Welgene, Korea) supplemented with 20% (v/v) FBS, 3 ng/mL basic fibroblast growth factor (R&D Systems, USA), 5 U/mL of heparin (Sigma, USA), and a penicillin-streptomycin-amphotericin B mixture (100 U/mL potassium penicillin, […] streptomycin sulfate, and 250 ng/mL amphotericin B; Lonza, Belgium) as a complete medium. Cells were cultured at 37°C in a humidified incubator with 5% CO2. Cells were plated in 96-well tissue culture plates (2 × 10^4 cells per well). After 1 day, they were treated with various concentrations (25, 50, 100, and 200 μg/mL) of peptides. Melittin (Sigma, USA) was used as the positive control. After incubation for 24 h, the viability of the cells was assessed by the Cell Titer 96 AQueous One Solution Cell Proliferation Assay according to the manufacturer’s protocol (Promega, USA). The optical density at 490 nm was measured with a microplate reader (Beckman DTX 8800 Multi Detector, USA).

[1] = tested on: Human umbilical vein endothelial cells (HUVECs); test: Cell viability assay (MTS); type: cell-based; conditions: 24 h treatment, 25, 50, 100 and 200 μg/mL, OD 490 nm
Method: as §1

`CC[C@H](C)[C@H](NC(=O)CN)C(=O)NCC(=O)N[C@@H](C)C(=O)N[C@H](C(=O)N[C@@H](CC(C)C)C(=O)N[C@@H](CCCCN)C(=O)N[C@H](C(=O)N[C@@H](CC(C)C)C(=O)N[C@H](C(=O)N[C@H](C(=O)NCC(=O)N[C@@H](CC(C)C)C(=O)N1CCC[C@H]1C(=O)N[C@@H](C)C(=O)N[C@@H](CC(C)C)C(=O)N[C@H](C(=O)N[C@@H](CO)C(=O)N[C@@H](Cc1c[nH]c2ccccc12)C(=O)N[C@H](C(=O)N[C@@H](CCCCN)C(=O)N[C@@H](CCCNC(=N)N)C(=O)N[C@@H](CCCCN)C(=O)N[C@@H](CCCNC(=N)N)C(=O)N[C@@H](CCC(N)=O)C(=O)N[C@@H](CCC(N)=O)C(N)=O)[C@@H](C)CC)[C@@H](C)CC)[C@@H](C)O)[C@@H](C)O)C(C)C)C(C)C` [Melittin] was tested, and the “Minimum Inhibitory Concentration (MIC)” value (C. albicans (ATCC 14053)) was 8 µg/mL, the “Cell viability of human keratinocytes” value (human keratinocytes) was “more susceptible” and the “Cell viability of HUVECs” value [1] was “more susceptible”.
